Measured values taken from patent US12655116B2, “Substituted isophthalic acid diamides” (Bayer Aktiengesellschaft, priority 2020, dated 2026).

Columns and labels:
STEME [1] = experiment: Post-emergence herbicidal action against STEME; assay type: in vivo, Stellaria media; conditions: Stellaria media, 504 h; for pest or weed control at 5 g/ha: dosage 5 g/ha
How it was run: (§1)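 Greenhouse plants in sandy loam were sprayed at the one-leaf stage, 2 to 3 weeks after sowing, with WP or EC formulations as aqueous suspension or emulsion (600 to 800 l/ha water, 0.2% wetting agent). Visual damage was scored about 3 weeks later versus untreated controls, 0% = like control, 100% = dead.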

ALOMY [2] = experiment: Post-emergence herbicidal action against ALOMY; assay type: in vivo, Alopecurus myosuroides; conditions: Alopecurus myosuroides, 504 h, dosage 20 g/ha, visual assessment about 3 weeks after treatment vs untreated controls
How it was run: as §1

SETVI [3] = experiment: Pre-emergence herbicidal action against SETVI; assay type: in vivo, Setaria viridis; conditions: Setaria viridis, 504 h; for pest or weed control at 80 g/ha: dosage 80 g/ha
How it was run: (§2)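 Pre-emergence soil-surface spray of formulated compound (WP or EC; 600 to 800 l/ha; 0.2% wetting agent) over seeds sown in sandy loam. After 3 weeks under greenhouse conditions, damage is estimated visually in percent against untreated plants.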

LOLRI = experiment: Pre-emergence herbicidal action against LOLRI; assay type: in vivo, Lolium rigidum; conditions: Lolium rigidum, 504 h, 80 g/ha
How it was run: as §2

AMARE [4] = experiment: Pre-emergence herbicidal action against AMARE; assay type: in vivo, Amaranthus retroflexus; conditions: Amaranthus retroflexus, 504 h, scored visually after 3 weeks vs untreated controls, 100% = plants have died, 0% = like control plants
How it was run: as §2

ABUTH [5] = experiment: Post-emergence herbicidal action against ABUTH; assay type: in vivo, Abutilon theophrasti; conditions: Abutilon theophrasti, 504 h, visual assessment about 3 weeks after treatment vs untreated controls; for pest or weed control at 5 g/ha: dosage 5 g/ha; for pest or weed control at 20 g/ha: dosage 20 g/ha
How it was run: as §1

MATIN [6] = experiment: Post-emergence herbicidal action against MATIN; assay type: in vivo, Matricaria inodora; conditions: Tripleurospermum inodorum, 504 h, dosage 20 g/ha
How it was run: as §1

SETVI [7] = experiment: Post-emergence herbicidal action against SETVI; assay type: in vivo, Setaria viridis; conditions: Setaria viridis, 504 h; for pest or weed control at 20 g/ha: dosage 20 g/ha
How it was run: as §1

ABUTH [8] = experiment: Pre-emergence herbicidal action against ABUTH; assay type: in vivo, Abutilon theophrasti; conditions: Abutilon theophrasti, 504 h; for pest or weed control at 80 g/ha: scored visually after 3 weeks vs untreated controls (100% = plants have died, 0% = like control plants)
How it was run: as §2

AVEFA [9] = experiment: Pre-emergence herbicidal action against AVEFA; assay type: in vivo, Avena fatua; conditions: Avena fatua, 504 h; 80 g/ha, pre-emergence
How it was run: as §2

POLCO = experiment: Pre-emergence herbicidal action against POLCO; assay type: in vivo, Polygonum convolvulus; conditions: Fallopia convolvulus, 504 h, dosage 80 g/ha
How it was run: as §2

STEME [10] = experiment: Pre-emergence herbicidal action against STEME; assay type: in vivo, Stellaria media; conditions: Stellaria media, 504 h; for pest or weed control at 20 g/ha: dosage 20 g/ha; for pest or weed control at 80 g/ha: dosage 80 g/ha
How it was run: as §2

PHBPU [11] = experiment: Post-emergence herbicidal action against PHBPU; assay type: in vivo, Pharbitis purpurea; conditions: Ipomoea purpurea, 504 h; for pest or weed control at 20 g/ha: dosage 20 g/ha
How it was run: as §1

VIOTR [12] = experiment: Pre-emergence herbicidal action against VIOTR; assay type: in vivo, Viola tricolor; conditions: Viola tricolor, 504 h; for pest or weed control at 20 g/ha: dosage 20 g/ha; for pest or weed control at 80 g/ha: dosage 80 g/ha
How it was run: as §2

VERPE [13] = experiment: Post-emergence herbicidal action against VERPE; assay type: in vivo, Veronica persica; conditions: Veronica persica, 504 h
How it was run: as §1

MATIN [14] = experiment: Pre-emergence herbicidal action against MATIN; assay type: in vivo, Matricaria inodora; conditions: Tripleurospermum inodorum, 504 h; for pest or weed control at 20 g/ha: dosage 20 g/ha; for pest or weed control at 80 g/ha: dosage 80 g/ha
How it was run: as §2

VIOTR [15] = experiment: Post-emergence herbicidal action against VIOTR; assay type: in vivo, Viola tricolor; conditions: Viola tricolor, 504 h
How it was run: as §1

DIGSA [16] = experiment: Post-emergence herbicidal action against DIGSA; assay type: in vivo, Digitaria sanguinalis; conditions: Digitaria sanguinalis, 504 h
How it was run: as §1

AMARE [17] = experiment: Post-emergence herbicidal action against AMARE; assay type: in vivo, Amaranthus retroflexus; conditions: Amaranthus retroflexus, 504 h, 20 g/ha, visual assessment about 3 weeks after treatment, 100% = plants have died, 0% = like control plants
How it was run: as §1

HORMU = experiment: Post-emergence herbicidal action against HORMU; assay type: in vivo, Hordeum murinum; conditions: Hordeum murinum, 504 h, dosage 20 g/ha
Protocol: Seeds of monocotyledonous and dicotyledonous weed and crop plants are laid out in sandy loam soil in wood-fiber pots, covered with soil and cultivated in a greenhouse under good growth conditions. 2 to 3 weeks after sowing, the test plants are treated at the one-leaf stage. The compounds of the invention, formulated in the form of wettable powders (WP) or as emulsion concentrates (EC), are then sprayed onto the green parts of the plants in the form of an aqueous suspension or emulsion at a water application rate equivalent to 600 to 800 l/ha, with addition of 0.2% wetting agent. After the test plants have been left to stand in the greenhouse under optimal growth conditions for about 3 weeks, the action of the preparations is assessed visually in comparison to untreated controls (herbicidal action in percent (%): 100% activity=the plants have died, 0% activity=like control plants). […] The tables below illustrate, in an illustrative manner, the post-emergence herbicidal action of the compounds of the invention, the herbicidal activity being stated in percent.

ALOMY [18] = experiment: Pre-emergence herbicidal action against ALOMY; assay type: in vivo, Alopecurus myosuroides; conditions: Alopecurus myosuroides, 504 h; 80 g/ha, pre-emergence, scored visually after 3 weeks vs untreated controls (100% = plants have died, 0% = like control plants)
How it was run: as §2

VERPE [19] = experiment: Pre-emergence herbicidal action against VERPE; assay type: in vivo, Veronica persica; conditions: Veronica persica, 504 h; for pest or weed control at 80 g/ha: dosage 80 g/ha
How it was run: as §2

PHBPU [20] = experiment: Pre-emergence herbicidal action against PHBPU; assay type: in vivo, Pharbitis purpurea; conditions: Ipomoea purpurea, 504 h, dosage 80 g/ha
How it was run: as §2

DIGSA [21] = experiment: Pre-emergence herbicidal action against DIGSA; assay type: in vivo, Digitaria sanguinalis; conditions: Digitaria sanguinalis, 504 h; for pest or weed control at 20 g/ha: dosage 20 g/ha; for pest or weed control at 80 g/ha: dosage 80 g/ha
How it was run: as §2

ECHCG [22] = experiment: Post-emergence herbicidal action against ECHCG; assay type: in vivo, Echinochloa crus-galli; conditions: Echinochloa crus-galli, 504 h; for pest or weed control at 20 g/ha: dosage 20 g/ha
How it was run: as §1

ECHCG [23] = experiment: Pre-emergence herbicidal action against ECHCG; assay type: in vivo, Echinochloa crus-galli; conditions: Echinochloa crus-galli, 504 h, 80 g/ha
How it was run: as §2

AVEFA [24] = experiment: Post-emergence herbicidal action against AVEFA; assay type: in vivo, Avena fatua; conditions: Avena fatua, 504 h, 20 g/ha, visual assessment about 3 weeks after treatment, 100% = plants have died, 0% = like control plants
How it was run: as §1

Compound | pest or weed control at 20 g/ha (STEME [1]) | pest or weed control at 5 g/ha (STEME [1]) | pest or weed control at 20 g/ha (ALOMY [2]) | pest or weed control at 80 g/ha (SETVI [3]) | pest or weed control at 80 g/ha (LOLRI) | pest or weed control at 20 g/ha (AMARE [4]) | pest or weed control at 80 g/ha (AMARE [4]) | pest or weed control at 5 g/ha (ABUTH [5]) | pest or weed control at 20 g/ha (ABUTH [5]) | pest or weed control at 20 g/ha (MATIN [6]) | pest or weed control at 20 g/ha (SETVI [7]) | pest or weed control at 80 g/ha (ABUTH [8]) | pest or weed control at 80 g/ha (AVEFA [9]) | pest or weed control at 80 g/ha (POLCO) | pest or weed control at 20 g/ha (STEME [10]) | pest or weed control at 80 g/ha (STEME [10]) | pest or weed control at 20 g/ha (PHBPU [11]) | pest or weed control at 20 g/ha (VIOTR [12]) | pest or weed control at 80 g/ha (VIOTR [12]) | pest or weed control at 20 g/ha (VERPE [13]) | other results
CNC(=O)c1c(C(F)(F)F)ccc(C(=O)Nc2nnnn2C)c1C [Example 1-25] | 100% | 80% | 100% | 100% | 80% | 100% | 100% | 100% | 100% | 100% | 80% | 100% | 90% | 80% | 80% | 90% | 80% | 80% | 100% | 80% | pest or weed control at 20 g/ha (SETVI [3]; dosage 20 g/ha): 80%; pest or weed control at 20 g/ha (MATIN [14]): 90%; pest or weed control at 80 g/ha (MATIN [14]): 100%; pest or weed control at 5 g/ha (VIOTR [15]; 5 g/ha): 100%; pest or weed control at 20 g/ha (VIOTR [15]): 100%; pest or weed control at 5 g/ha (DIGSA [16]): 90%; pest or weed control at 20 g/ha (DIGSA [16]): 100%; pest or weed control at 20 g/ha (AMARE [17]): 100%; pest or weed control at 20 g/ha (HORMU): 100%; pest or weed control at 80 g/ha (ALOMY [18]): 90%; pest or weed control at 20 g/ha (VERPE [19]; dosage 20 g/ha): 80%; pest or weed control at 80 g/ha (VERPE [19]): 100%; pest or weed control at 80 g/ha (PHBPU [20]): 90%; pest or weed control at 20 g/ha (DIGSA [21]): 90%; pest or weed control at 80 g/ha (DIGSA [21]): 100%; pest or weed control at 20 g/ha (ECHCG [22]): 100%; pest or weed control at 80 g/ha (ECHCG [23]): 100%
CNC(=O)c1c(C(F)F)ccc(C(=O)Nc2nnnn2C)c1SC [Example 1-87] | 100% | 80% | 80% | 100% | 80% | 90% | 100% | 90% | 90% | 80% | 90% | 100% | 90% | 90% | 90% | 100% | 90% | 80% | 100% | 90% | pest or weed control at 5 g/ha (SETVI [7]; dosage 5 g/ha): 80%; pest or weed control at 20 g/ha (AVEFA [24]): 80%; pest or weed control at 20 g/ha (ABUTH [8]; dosage 20 g/ha, scored visually after 3 weeks vs untreated controls, 100% = plants have died, 0% = like control plants, read-out: Pre-emergence action against ABUTH (herbicidal activity in percent)): 100%; pest or weed control at 5 g/ha (PHBPU [11]; dosage 5 g/ha): 80%; pest or weed control at 5 g/ha (VERPE [13]; 5 g/ha): 80%; pest or weed control at 20 g/ha (MATIN [14]): 80%; pest or weed control at 80 g/ha (MATIN [14]): 90%; pest or weed control at 20 g/ha (VIOTR [15]): 80%; pest or weed control at 5 g/ha (DIGSA [16]): 100%; pest or weed control at 20 g/ha (DIGSA [16]): 100%; pest or weed control at 20 g/ha (AMARE [17]): 100%; pest or weed control at 20 g/ha (HORMU): 80%; pest or weed control at 80 g/ha (ALOMY [18]): 90%; pest or weed control at 80 g/ha (VERPE [19]): 90%; pest or weed control at 80 g/ha (PHBPU [20]): 80%; pest or weed control at 20 g/ha (DIGSA [21]): 100%; pest or weed control at 80 g/ha (DIGSA [21]): 100%; pest or weed control at 5 g/ha (ECHCG [22]; dosage 5 g/ha): 80%; pest or weed control at 20 g/ha (ECHCG [22]): 80%; pest or weed control at 80 g/ha (ECHCG [23]): 100%
